One test concerns the target RET kinase (Homo sapiens, UniProt P07949). The experiment in a line: RET kinase biochemical assay. The following applies: read-out: RET (IC50), mean of at least n = 3.
In the next test the target is TRKA (Homo sapiens, UniProt P04629). The experiment in a line: TRKA kinase biochemical assay. The following applies: read-out: TRKA (IC50), mean of at least n = 3.
In test [1] the test system is LC-2/ad cells (RET-CCDC6 fusion-driven NSCLC). The experiment in a line: Cell viability, RET-driven cell line. It counts as cell-based. The following applies: read-out: LC-2/ad (EC50).
The next test concerns KM-12 cells. The experiment in a line: Cell viability, TRKA-driven matched control. It counts as cell-based. The following applies: read-out: KM-12 (EC50).
The test system of another test is A549 cells. The experiment in a line: Cell viability, cytotoxic control. It counts as cell-based. The following applies: read-out: A549 (EC50).

The source of these data is PMC9969764 (ChemMedChem, 2021).

SMILES strings stand for the structures.

RET kinase, sequence (P07949 29-1114): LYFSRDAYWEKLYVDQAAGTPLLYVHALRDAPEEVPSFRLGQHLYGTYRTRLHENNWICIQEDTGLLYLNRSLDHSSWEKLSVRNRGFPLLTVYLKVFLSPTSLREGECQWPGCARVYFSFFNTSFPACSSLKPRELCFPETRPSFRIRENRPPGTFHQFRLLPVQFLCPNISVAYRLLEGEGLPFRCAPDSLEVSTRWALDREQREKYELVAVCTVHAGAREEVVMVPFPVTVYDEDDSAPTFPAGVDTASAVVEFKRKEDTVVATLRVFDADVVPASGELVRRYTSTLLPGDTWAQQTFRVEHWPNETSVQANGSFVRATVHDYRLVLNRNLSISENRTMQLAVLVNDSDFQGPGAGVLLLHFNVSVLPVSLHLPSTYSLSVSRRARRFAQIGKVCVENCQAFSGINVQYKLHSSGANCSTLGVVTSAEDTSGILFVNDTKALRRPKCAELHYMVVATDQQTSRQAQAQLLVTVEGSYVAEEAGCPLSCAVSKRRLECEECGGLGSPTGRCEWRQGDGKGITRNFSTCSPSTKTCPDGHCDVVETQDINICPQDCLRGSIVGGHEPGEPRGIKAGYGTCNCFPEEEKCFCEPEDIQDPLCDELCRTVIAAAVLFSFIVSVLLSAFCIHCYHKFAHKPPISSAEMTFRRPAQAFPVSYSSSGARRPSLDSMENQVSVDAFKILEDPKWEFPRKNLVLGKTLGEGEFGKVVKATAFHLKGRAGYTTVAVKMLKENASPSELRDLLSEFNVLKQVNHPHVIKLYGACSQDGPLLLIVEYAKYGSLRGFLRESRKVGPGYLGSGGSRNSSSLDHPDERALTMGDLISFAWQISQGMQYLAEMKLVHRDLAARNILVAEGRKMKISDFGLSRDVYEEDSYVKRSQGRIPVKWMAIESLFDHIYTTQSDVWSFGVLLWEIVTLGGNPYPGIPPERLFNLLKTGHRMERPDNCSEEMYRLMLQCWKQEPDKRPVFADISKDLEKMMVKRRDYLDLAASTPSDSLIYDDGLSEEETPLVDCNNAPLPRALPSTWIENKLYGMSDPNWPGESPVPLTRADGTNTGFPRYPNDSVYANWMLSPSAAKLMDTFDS
TRKA, sequence (P04629 33-796): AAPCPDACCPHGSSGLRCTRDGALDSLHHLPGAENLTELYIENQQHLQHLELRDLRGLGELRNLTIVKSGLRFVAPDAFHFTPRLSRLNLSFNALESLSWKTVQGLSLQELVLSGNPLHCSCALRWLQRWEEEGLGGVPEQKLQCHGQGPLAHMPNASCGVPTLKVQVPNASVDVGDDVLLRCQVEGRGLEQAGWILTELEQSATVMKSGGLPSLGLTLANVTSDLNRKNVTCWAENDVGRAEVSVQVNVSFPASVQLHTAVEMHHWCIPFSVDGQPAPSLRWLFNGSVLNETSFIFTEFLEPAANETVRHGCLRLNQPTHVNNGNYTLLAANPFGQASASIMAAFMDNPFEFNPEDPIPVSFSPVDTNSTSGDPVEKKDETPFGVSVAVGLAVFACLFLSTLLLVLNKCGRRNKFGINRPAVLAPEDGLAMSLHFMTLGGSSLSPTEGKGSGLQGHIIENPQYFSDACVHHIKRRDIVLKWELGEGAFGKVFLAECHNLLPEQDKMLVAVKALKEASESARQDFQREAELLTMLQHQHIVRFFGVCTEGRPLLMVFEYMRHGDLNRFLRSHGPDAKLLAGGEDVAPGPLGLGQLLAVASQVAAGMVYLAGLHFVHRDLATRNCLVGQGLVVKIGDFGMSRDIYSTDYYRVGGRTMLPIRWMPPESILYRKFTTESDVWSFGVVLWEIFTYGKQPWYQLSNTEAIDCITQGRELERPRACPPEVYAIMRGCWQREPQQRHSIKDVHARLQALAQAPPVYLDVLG

`Cn1nc(-c2ccccc2)c2c(N)ncnc21` [4a]: the IC50 on RET kinase amounted to 6.82 ± 2.22 µM.

On to `Nc1ncnc2[nH]ncc12` [fragment 1, pyrazoloadenine], for which the IC50 on RET kinase was 9.2 µM; on TRKA, 57.1 µM. Besides, the EC50 was 1.47 µM in test [1], 1.73 µM in the test on KM-12 cells and 3.02 µM in the test on A549 cells.

For orientation: IC50 means the concentration at which inhibition is half-maximal.
